These results are taken from PubChem BioAssay (NCI).

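Cultured in 96-well plates, cells were exposed to test compound for 48 hours across five concentrations. TGI is the concentration that stops growth completely.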

Among the test systems are KM20L2 colon; LXFL 529 NSCLC; SNB-78 CNS; XF 498 CNS; M19-MEL melanoma; HOP-18 NSCLC; DMS 273 small cell lung; DMS 114 small cell lung; RXF-631 renal.
Common to all, as to assay: NCI-60 cell line screen, 48 h

Turning to `Cc1ccc(NCC(=O)N2CC(=O)Nc3ccccc32)c(C)c1`, the TGI in the test on KM20L2 colon, in the test with LXFL 529 NSCLC, in the test with SNB-78 CNS, with XF 498 CNS, with M19-MEL melanoma and with HOP-18 NSCLC was above 100 µM throughout. This compound displayed a TGI in the test with DMS 273 small cell lung above 100 µM.

As for `O=c1cc(-c2ccccc2)c2ccccc2[nH]1`, the TGI was above 100 µM in the test with LXFL 529 NSCLC; 51.4 µM in the test on DMS 114 small cell lung; above 100 µM with M19-MEL melanoma; above 100 µM with HOP-18 NSCLC; above 100 µM in the test on DMS 273 small cell lung.

For `CS(=O)(=O)OC1CCC2(C#N)CCC1C2=O` (stereo not given), the TGI with KM20L2 colon, with LXFL 529 NSCLC, in the test with SNB-78 CNS, in the test with XF 498 CNS, in the test with M19-MEL melanoma and in the test on HOP-18 NSCLC was above 100 µM throughout. Besides, the TGI in the test on DMS 273 small cell lung and with RXF-631 renal was above 100 µM in each case.

Take `Cc1c2ccncc2c(C)c2c1[nH]c1ccc(OC(C)C)cc12`: the TGI in the test with KM20L2 colon turned out to be 2.59 µM; with LXFL 529 NSCLC it was 2.1 µM; in the test on SNB-78 CNS it was 6.05 µM; with DMS 114 small cell lung it was 3.24 µM; with XF 498 CNS, 2.91 µM; in the test with M19-MEL melanoma, 3.42 µM. Also, the TGI in the test with HOP-18 NSCLC was 2.93 µM; with DMS 273 small cell lung it was 2.07 µM.

With `[N-]=[N+]=NC(CCl)c1cn([C@H]2C[C@H](O)[C@@H](CO)O2)c(=O)[nH]c1=O` (stereo not given in full), the TGI in the test on KM20L2 colon, in the test with LXFL 529 NSCLC, with SNB-78 CNS, with DMS 114 small cell lung, in the test with M19-MEL melanoma and in the test on HOP-18 NSCLC was above 100 µM throughout. This compound also registered a TGI in the test on DMS 273 small cell lung above 100 µM.

`CN(Cc1ccccc1)C(=NC#N)N(Cc1ccccc1)Cc1ccccc1`: the TGI with KM20L2 colon amounted to 56.2 µM; with LXFL 529 NSCLC, 70.2 µM; in the test with SNB-78 CNS, 77.1 µM; in the test on M19-MEL melanoma, 54.4 µM; in the test with DMS 273 small cell lung, 41.8 µM.
